Converted amounts (≈) assume the structure as drawn.
What was measured:
[1] = system: Staphylococcus aureus; test: Antibacterial activity against methicillin-resistant Staphylococcus aureus MW2 BAA 1707 assessed as growth inhibition by standard microdilution method; format: functional
[2] = system: HepG2; test: Cytotoxicity against human HepG2 cells assessed as reduction in cell viability measured after 24 hrs by WST1 assay; format: functional; details: HepG2, 24 h, read-out: LC50 (the source's name)
[3] = Hemolytic activity against human erythrocytes measured after 1 hr; format: ADME, cell-based, Erythrocyte
[4] = system: HeLa; test: Cytotoxicity against human HeLa cells assessed as reduction in cell viability measured after 24 hrs by WST1 assay; format: functional; details: read-out: LC50 (the source's name)
[5] = system: Staphylococcus aureus; test: Antibacterial activity against methicillin-resistant Staphylococcus aureus JE2 assessed as growth inhibition by standard microdilution method; format: functional
[6] = system: Staphylococcus aureus; test: Antibacterial activity against methicillin-resistant Staphylococcus aureus ATCC 33591 assessed as growth inhibition by standard microdilution method; format: functional
[7] = system: Staphylococcus aureus; test: Antibacterial activity against vancomycin-resistant Staphylococcus aureus VRS1 assessed as growth inhibition by standard microdilution method; format: functional
[8] = system: Staphylococcus aureus; test: Antibiofilm activity against methicillin-resistant Staphylococcus aureus MW2 assessed as reduction in number of viable cells by measuring colony forming units at 16 fold MIC relative to control; format: functional
[9] = system: Staphylococcus aureus; test: Antibacterial activity against methicillin-resistant Staphylococcus aureus MW2 assessed as growth inhibition; format: functional

Structure (SMILES)	MIC [1] [µg/mL]	CC50 [2]	HC50 at 1 h [3] [µg/mL]	CC50 [4] [µg/mL]	MIC [5] [µg/mL]	MIC [6] [µg/mL]	MIC [7] [µg/mL]	inhibition (INH) [8] [%]	MIC [9] [µg/mL]
CCCCCCCC=Cc1cc(-c2ccc3cc(CO)ccc3c2)ccc1O	> 64	5.51 µg/mL	> 64						
CCCCCc1cc(-c2ccc3cc(CO)ccc3c2)ccc1O	4	3.27 µg/mL	> 64						
CCCCCCCC=Cc1cc(-c2ccc3cc(C(=O)O)ccc3c2)ccc1O	4	2.6 µg/mL	51.5						
CC12CC3CC(C)(C1)CC(c1cc(-c4ccc5cc(CO)ccc5c4)ccc1O)(C3)C2	8	11.7 µg/mL	> 64						
Cc1cc(-c2ccc3cc(CO)ccc3c2)ccc1O	> 64	> 32 µg/mL	> 64						
OCc1ccc2cc(-c3ccc(O)cc3)ccc2c1	> 64	1.7 µM	> 64						
CCCCCC=Cc1cc(-c2ccc3cc(CO)ccc3c2)ccc1O	4	4.19 µg/mL	> 64						
CCCC=Cc1cc(-c2ccc3cc(CO)ccc3c2)ccc1O	4	3.89 µg/mL	> 64						
CCCCCCCc1cc(-c2ccc3cc(C(=O)O)ccc3c2)ccc1O	4	1.89 µg/mL	> 64	0.6 (≈ 1.66 µM)					
O=C(O)c1ccc2cc(-c3ccc(O)c(C45CC6CC(CC(C6)C4)C5)c3)ccc2c1 [O-DEMETHYLATED ADAPALENE]	1	1.02 µg/mL	> 64	0.21 (≈ 0.527 µM)	1	1	1	90	2 (≈ 5.02 µM)
CC12CC3CC(C)(C1)CC(c1cc(-c4ccc5cc(C(=O)O)ccc5c4)ccc1O)(C3)C2	2	1.84 µg/mL	15.2	0.49 (≈ 1.15 µM)	2	2	2		
CN[C@H](CC(C)C)C(=O)N[C@H]1C(=O)N[C@@H](CC(N)=O)C(=O)N[C@H]2C(=O)N[C@H]3C(=O)N[C@H](C(=O)N[C@H](C(=O)O)c4cc(O)cc(O)c4-c4cc3ccc4O)[C@H](O)c3ccc(c(Cl)c3)Oc3cc2cc(c3O[C@@H]2O[C@H](CO)[C@@H](O)[C@H](O)[C@H]2O[C@H]2C[C@](C)(N)[C@H](O)[C@H](C)O2)Oc2ccc(cc2Cl)[C@H]1O [VANCOMYCIN]							> 64		
CCCCCCCCCc1cc(-c2ccc3cc(C(=O)O)ccc3c2)ccc1O	4	1.73 µg/mL	22.8						
O=C(O)c1ccc2cc(-c3ccc(O)cc3)ccc2c1	> 64	> 32 µg/mL	> 64						
CC(C)(C)c1cc(-c2ccc3cc(C(=O)O)ccc3c2)ccc1O	16	9.8 µg/mL	> 64						
Cc1cc(-c2ccc3cc(C(=O)O)ccc3c2)ccc1O	> 64	> 32 µg/mL	> 64						
CC(C)(C)c1cc(-c2ccc3cc(CO)ccc3c2)ccc1O	8	7.5 µg/mL	> 64						
CCCCCCCCCc1cc(-c2ccc3cc(CO)ccc3c2)ccc1O	> 64	7.25 µg/mL	> 64						
CCCCCc1cc(-c2ccc3cc(C(=O)O)ccc3c2)ccc1O	8	3.26 µg/mL	> 64						
CCCCCCCc1cc(-c2ccc3cc(CO)ccc3c2)ccc1O	4	3.61 µg/mL	> 64						
CCCCCC=Cc1cc(-c2ccc3cc(C(=O)O)ccc3c2)ccc1O	8	2.44 µg/mL	45.4						
CCCC=Cc1cc(-c2ccc3cc(C(=O)O)ccc3c2)ccc1O	16	5.38 µg/mL	> 64						

Source: ChEMBL document CHEMBL4342495, “Structure-Activity Relationship and Anticancer Profile of Second-Generation Anti-MRSA Synthetic Retinoids” (ACS Med Chem Lett, 2020)
